{"source": "ChEMBL document CHEMBL5537177", "about": "“Discovery of Potent Antimalarial Type II Kinase Inhibitors with Selectivity over Human Kinases” (J Med Chem, 2024)", "key": {"Plasmodium falciparum [1]": {"system": "Plasmodium falciparum", "test": "Antimalarial activity against artemisinin/piperaquine-resistant synchronized early ring stage Plasmodium falciparum IPC 6261 (MRA-1284) clinical isolate assessed as decrease in parasite survival at ring stage at 10 times EC50 treated for 6 hrs followed by compound removal measured after 72 hrs by geimsa staining based microscopy", "assay_type": "functional, organism-based"}, "Plasmodium falciparum [2]": {"system": "Plasmodium falciparum", "test": "Antimalarial activity against patient-derived ring-stage Plasmodium falciparum clinical isolate from Patongo town of Uganda infected in O+ RBCs assessed as reduction in parasitemia incubated for 72 hrs by SYBR green I dye based analysis", "assay_type": "functional, organism-based, RBC", "details": "Erythrocyte"}, "[3]": {"test": "Half life in mouse at 10 mg/kg, po", "assay_type": "ADME, organism-based", "details": "in vivo"}, "Plasmodium falciparum [4]": {"system": "Plasmodium falciparum", "test": "Antimalarial activity against synchronized early ring stage Plasmodium falciparum 3D7 (MRA-152) clinical isolate assessed as decrease in parasite survival at ring stage at 10 times EC50 treated for 6 to 48 hrs followed by compound removal measured after 72 hrs by geimsa staining based microscopy", "assay_type": "functional, organism-based"}, "Ephrin type-A receptor 2": {"biological_target": "Ephrin type-A receptor 2 (Homo sapiens, UniProt P29317)", "sequence (P29317 whole entry)": "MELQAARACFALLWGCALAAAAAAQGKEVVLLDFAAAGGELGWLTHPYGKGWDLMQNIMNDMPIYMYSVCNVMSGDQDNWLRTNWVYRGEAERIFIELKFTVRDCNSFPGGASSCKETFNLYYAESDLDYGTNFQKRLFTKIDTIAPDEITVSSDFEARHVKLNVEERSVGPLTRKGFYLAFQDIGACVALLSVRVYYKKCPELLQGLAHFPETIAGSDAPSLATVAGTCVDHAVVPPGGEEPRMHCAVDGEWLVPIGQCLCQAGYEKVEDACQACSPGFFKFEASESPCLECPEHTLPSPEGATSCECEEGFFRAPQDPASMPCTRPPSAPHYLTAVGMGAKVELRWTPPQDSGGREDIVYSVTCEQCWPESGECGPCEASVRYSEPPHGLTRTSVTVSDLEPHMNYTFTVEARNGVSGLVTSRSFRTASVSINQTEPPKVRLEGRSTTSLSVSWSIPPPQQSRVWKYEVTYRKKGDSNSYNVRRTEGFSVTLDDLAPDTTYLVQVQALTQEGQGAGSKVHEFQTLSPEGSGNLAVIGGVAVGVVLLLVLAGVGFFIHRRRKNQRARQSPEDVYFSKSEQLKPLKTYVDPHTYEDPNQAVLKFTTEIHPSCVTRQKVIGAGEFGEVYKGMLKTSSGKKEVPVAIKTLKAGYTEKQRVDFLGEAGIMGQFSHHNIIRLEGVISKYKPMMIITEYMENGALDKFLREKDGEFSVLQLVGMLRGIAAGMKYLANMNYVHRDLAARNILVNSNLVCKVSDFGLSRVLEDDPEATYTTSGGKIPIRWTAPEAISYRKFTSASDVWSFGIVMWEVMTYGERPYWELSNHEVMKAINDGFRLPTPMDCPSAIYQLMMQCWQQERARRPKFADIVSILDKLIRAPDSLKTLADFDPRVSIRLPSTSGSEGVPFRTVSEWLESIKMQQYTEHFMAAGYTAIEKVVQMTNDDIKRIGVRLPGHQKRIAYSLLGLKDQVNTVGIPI", "test": "Inhibition of human EphA2 by FRET assay"}, "Plasmodium falciparum [5]": {"system": "Plasmodium falciparum", "test": "Antiplasmodial activity against drug-sensitive Plasmodium falciparum 3D7 at ring stage infected in A+ erythrocytes assessed as parasite growth reduction incubated for 72 hrs by SYBR Green I dye based analysis", "assay_type": "functional, organism-based", "details": "3D7, Erythrocyte"}, "[6]": {"test": "Selectivity index, ratio of EC50 for human HepG2 cells to EC50 for multidrug-resistant Plasmodium falciparum Dd2 at ring stage infected in A+ erythrocytes", "assay_type": "toxicity, cell-based", "details": "read-out: Ratio EC50"}, "Plasmodium falciparum [7]": {"system": "Plasmodium falciparum", "test": "Antimalarial activity against patient-derived ring-stage Plasmodium falciparum clinical isolate from Tororo town of Uganda infected in O+ RBCs assessed as reduction in parasitemia incubated for 72 hrs by SYBR green I dye based analysis", "assay_type": "functional, organism-based, RBC", "details": "Erythrocyte"}, "[8]": {"test": "Selectivity index, ratio of EC50 for human MCF7 cells to EC50 for multidrug-resistant Plasmodium falciparum Dd2 at ring stage infected in A+ erythrocytes", "assay_type": "toxicity, cell-based", "details": "read-out: Ratio EC50"}, "[9]": {"test": "Oral bioavailability in mouse at 10 mg/kg", "assay_type": "ADME, organism-based", "details": "in vivo"}, "Plasmodium falciparum [10]": {"system": "Plasmodium falciparum", "test": "Antimalarial activity against synchronous blood-stage Plasmodium falciparum 3D7 assessed as duration of lag phase at 10 times EC50 treated every 24 hrs for 120 hrs followed by compound washout and subsequent addition of RBCs measured after 21 days by parasite reduction ratio assay", "assay_type": "functional"}, "Plasmodium falciparum [11]": {"system": "Plasmodium falciparum", "test": "Antimalarial activity in ring-stage Plasmodium falciparum Dd2-B2 infected in human O+ erythrocytes assessed as reduction in parasitemia incubated for 72 hrs by SYBR Green I/ MitoTracker Deep Red dye based flow cytometry", "assay_type": "functional, organism-based", "details": "Dd2-B2, 72 h"}, "Plasmodium falciparum [12]": {"system": "Plasmodium falciparum", "test": "Antimalarial activity in blood-stage Plasmodium falciparum Dd2-B2 infected in human O+ erythrocytes assessed as minimum inoculum of resistance at 3 times […] measured for 50 days by blood smear analysis", "assay_type": "functional", "details": "time 50 day"}, "Plasmodium falciparum [13]": {"system": "Plasmodium falciparum", "test": "Antimalarial activity against synchronized Plasmodium falciparum Dd2 assessed as parasite growth inhibition at ring stage at 5 times EC50 treated 6 hrs post-invasion measured after 54 hrs post-invasion by Geimsa staining based microscopy", "assay_type": "functional, organism-based", "details": "time 48.0 hrs"}, "[14]": {"test": "Volume of distribution at steady state in mouse at 2 mg/kg, iv", "assay_type": "ADME, organism-based", "details": "in vivo, read-out: Vdss"}, "Plasmodium falciparum [15]": {"system": "Plasmodium falciparum", "test": "Antimalarial activity against synchronized Plasmodium falciparum 3D7 assessed as reduction in parasite growth at early asexual stage treated 6 hrs post-invasion measured after 72 hrs by SYBR green I dye based microscopy", "assay_type": "functional, organism-based"}, "Plasmodium berghei": {"system": "Plasmodium berghei", "test": "Antimalarial activity against blood-stage Plasmodium berghei sporozoites expressing GFP-Luc SMcon infected in Swiss Webster mouse assessed as reduction in parasitemia at 15 mg/kg, iv pre-infected with mouse RBC containing Plasmodium berghei sporozoites followed by compound administration measured for 2 to 16 days post-infection by SYBR Green I dye based flow cytometry", "assay_type": "functional, organism-based", "details": "Erythrocyte, time 2-16 day"}, "Plasmodium falciparum [16]": {"system": "Plasmodium falciparum", "test": "Resistance index, ratio of EC50 for multidrug-resistant Plasmodium falciparum Dd2 at ring stage infected in A+ erythrocytes to EC50 for drug-sensitive Plasmodium falciparum 3D7 at ring stage infected in A+ erythrocytes", "assay_type": "organism-based", "details": "human"}, "Plasmodium falciparum [17]": {"system": "Plasmodium falciparum", "test": "Antimalarial activity against synchronized Plasmodium falciparum Dd2 assessed as absence of rightward shift of YOYO-1 peak at 5 times EC50 treated 6 hrs post-invasion measured after 54 hrs post-invasion by flow cytometry", "assay_type": "functional, organism-based", "details": "time 48.0 hrs"}, "[18]": {"test": "Clearance in mouse at 2 mg/kg, iv", "assay_type": "ADME, organism-based", "details": "in vivo"}, "Plasmodium falciparum [19]": {"system": "Plasmodium falciparum", "test": "Antiplasmodial activity against multidrug-resistant Plasmodium falciparum Dd2 at ring stage infected in A+ erythrocytes assessed as parasite growth reduction incubated for 72 hrs by SYBR Green I dye based analysis", "assay_type": "functional, organism-based", "details": "Dd2, Erythrocyte"}, "Plasmodium falciparum [20]": {"system": "Plasmodium falciparum", "test": "Antimalarial activity against synchronized Plasmodium falciparum Dd2 assessed as reduction in parasite growth at early asexual stage treated 36 hrs post-invasion measured after 72 hrs by SYBR green I dye based microscopy", "assay_type": "functional, organism-based"}, "[21]": {"test": "Cmax in mouse at 10 mg/kg, po", "assay_type": "ADME, organism-based", "details": "in vivo"}, "Plasmodium falciparum [22]": {"system": "Plasmodium falciparum", "test": "Antimalarial activity against Plasmodium falciparum harboring AcAS A597V mutation assessed as reduction in parasitemia incubated for 72 hrs by SYBR green I dye based analysis", "assay_type": "functional, organism-based"}, "Plasmodium falciparum [23]": {"system": "Plasmodium falciparum", "test": "Antimalarial activity against synchronized early ring stage Plasmodium falciparum 3D7 (MRA-152) clinical isolate assessed as decrease in parasite survival at ring stage at 10 times EC50 treated for 6 hrs followed by compound removal measured after 72 hrs by geimsa staining based microscopy", "assay_type": "functional, organism-based"}, "[24]": {"test": "Metabolic stability in mouse liver microsomes assessed as half life", "assay_type": "ADME, Liver cells"}, "Plasmodium falciparum [25]": {"system": "Plasmodium falciparum", "test": "Antimalarial activity against synchronized Plasmodium falciparum Dd2 assessed as aberrant morphology of parasites at 5 times EC50 treated 42 hrs post-invasion measured after 54 hrs post-invasion by Geimsa staining based microscopy", "assay_type": "functional, organism-based", "details": "time 12.0 hrs"}, "[26]": {"test": "Metabolic stability in mouse liver microsomes assessed as intrinsic clearance", "assay_type": "ADME, Liver cells"}, "Plasmodium falciparum [27]": {"system": "Plasmodium falciparum", "test": "Antimalarial activity against artemisinin-resistant/piperaquine-sensitive synchronized early ring stage Plasmodium falciparum IPC 5202 (MRA-1240) clinical isolate assessed as decrease in parasite survival at ring stage at 10 times EC50 treated for 6 to 48 hrs followed by compound removal measured after 72 hrs by geimsa staining based microscopy", "assay_type": "functional, organism-based"}, "Plasmodium falciparum [28]": {"system": "Plasmodium falciparum", "test": "Antimalarial activity against Plasmodium falciparum harboring CARL I1139K mutation assessed as reduction in parasitemia incubated for 72 hrs by SYBR green I dye based analysis", "assay_type": "functional, organism-based"}, "Plasmodium falciparum [29]": {"system": "Plasmodium falciparum", "test": "Antimalarial activity against synchronized Plasmodium falciparum Dd2 assessed as malformation of parasites at 5 times EC50 treated 18 to 30 hrs post-invasion measured after 54 hrs post-invasion by Geimsa staining based microscopy", "assay_type": "functional, organism-based", "details": "time 24-36 hrs"}, "[30]": {"test": "AUC (last) in mouse at 2 mg/kg, iv", "assay_type": "ADME, organism-based", "details": "in vivo"}, "Plasmodium falciparum [31]": {"system": "Plasmodium falciparum", "test": "Antimalarial activity against synchronous blood-stage Plasmodium falciparum 3D7 assessed as log of parasite reduction ratio at 10 times EC50 treated every 24 hrs for 120 hrs followed by compound washout and subsequent addition of RBCs measured after 21 days", "assay_type": "functional"}}, "note": "The source made the active and inactive calls. The rule behind the calls is not given here."}
{"smiles": "CCN1CCN(Cc2ccc(NC(=O)c3cc(Cl)cc(NC(=O)c4cncc(-c5cccs5)c4)c3)cc2C(F)(F)F)CC1", "values": [{"measurement": "Activity", "setting": "Plasmodium falciparum [1]", "value": "inactive"}, {"measurement": "EC50", "setting": "Plasmodium falciparum [2]", "value": 0.0092, "unit": "µM"}, {"measurement": "half-life", "setting": "[3]", "value": 5.71, "unit": "h"}, {"measurement": "EC50", "setting": "Plasmodium falciparum [4]", "value": 0.0611, "unit": "µM"}, {"measurement": "IC50", "setting": "Ephrin type-A receptor 2", "value": "> 10", "unit": "µM"}, {"measurement": "EC50", "setting": "Plasmodium falciparum [5]", "value": 0.042, "unit": "µM"}, {"measurement": "selectivity ratio", "setting": "[6]", "value": 45}, {"measurement": "EC50", "setting": "Plasmodium falciparum [7]", "value": 0.0092, "unit": "µM"}, {"measurement": "selectivity ratio", "setting": "[8]", "value": 61}, {"measurement": "bioavailability", "setting": "[9]", "value": 4.8, "unit": "%"}, {"measurement": "Time", "setting": "Plasmodium falciparum [10]", "value": 0, "unit": "h"}, {"measurement": "EC50", "setting": "Plasmodium falciparum [11]", "value": 0.0406, "unit": "µM"}, {"measurement": "Activity", "setting": "Plasmodium falciparum [12]", "value": ">7"}, {"measurement": "inhibition", "setting": "Plasmodium falciparum [13]", "value": "Active"}, {"measurement": "Vd", "setting": "[14]", "value": 0.84, "unit": "L/kg"}, {"measurement": "EC50", "setting": "Plasmodium falciparum [15]", "value": 0.0296, "unit": "µM"}, {"measurement": "Activity", "setting": "Plasmodium berghei", "value": "Active"}, {"measurement": "Ratio EC50", "setting": "Plasmodium falciparum [16]", "value": 1.4}, {"measurement": "Activity", "setting": "Plasmodium falciparum [17]", "value": "Active"}, {"measurement": "clearance", "setting": "[18]", "value": 4.3, "unit": "mL/min/kg"}, {"measurement": "EC50", "setting": "Plasmodium falciparum [19]", "value": 0.058, "unit": "µM"}, {"measurement": "EC50", "setting": "Plasmodium falciparum [20]", "value": 0.08, "unit": "µM"}, {"measurement": "Cmax", "setting": "[21]", "value": 153, "unit": "ng/mL"}, {"measurement": "EC50", "setting": "Plasmodium falciparum [22]", "value": 0.0405, "unit": "µM"}, {"measurement": "Activity", "setting": "Plasmodium falciparum [23]", "value": "inactive"}, {"measurement": "t1/2", "setting": "[24]", "value": 1.32, "unit": "h"}, {"measurement": "Activity", "setting": "Plasmodium falciparum [25]", "value": "Active"}, {"measurement": "intrinsic clearance", "setting": "[26]", "value": 9, "unit": "µL/min/mg"}, {"measurement": "EC50", "setting": "Plasmodium falciparum [27]", "value": 0.0722, "unit": "µM"}, {"measurement": "EC50", "setting": "Plasmodium falciparum [28]", "value": 0.0658, "unit": "µM"}, {"measurement": "Activity", "setting": "Plasmodium falciparum [29]", "value": "Active"}, {"measurement": "AUC(0-t)", "setting": "[30]", "value": 6860, "unit": "ng·h/mL"}, {"measurement": "log(activity)", "setting": "Plasmodium falciparum [31]", "value": 3.75}]}
